Experimental data: ChEMBL document CHEMBL1156829 (Proc Natl Acad Sci U S A, 2008)
pEC50: −log10 of the molar value. Peptide text beside a SMILES is read from it. * marks the point of attachment. Boc = CC(C)(C)OC(=O)*; OBn = c1ccc(CO*)cc1

Columns and labels:
[1] = system: Plasmodium falciparum; assay: NOVARTIS: Inhibition of Plasmodium falciparum 3D7 (drug-susceptible) proliferation in erythrocyte-based infection assay; type: functional, organism-based; details: Plasmodium falciparum, 3D7
[2] = system: Plasmodium falciparum; assay: NOVARTIS: Inhibition of Plasmodium falciparum W2 (drug-resistant) proliferation in erythrocyte-based infection assay; type: functional, organism-based; details: Plasmodium falciparum, W2; read-out: EC50
[3] = NOVARTIS: Cytotoxicity against human hepatocellular carcinoma cell line (Huh7); type: toxicity, cell-based, Huh-7; details: Huh7 cells (hepatocellular carcinoma cell line)

Structure (SMILES) | pEC50 [1] | pEC50 [2] | CC50 [3]
O=S(=O)(NCCCCNc1ccnc2cc(Cl)ccc12)c1cc(Cl)ccc1Cl | 6.41 | 6.47 | > 10700 nM
CC(C)c1ccc(C=CC(=O)NCc2ccco2)cc1 | 5.83 | 5.70 | > 100000 nM
O=C1c2ccc3c4c(ccc(c24)C(=O)N1CCCCO)C(=O)N(CCCCO)C3=O | 6.45 | 7.11 | 4380 nM
CCOC(=O)c1nnn(-c2nonc2N)c1-c1ccc(OC)cc1 | 6.19 | 6.25 | > 100000 nM
CC1CC(C)CN(S(=O)(=O)c2ccc(C(=O)Nc3ccc(-c4nc5ccccc5o4)cc3)cc2)C1 (centres undefined) | 5.92 | < 5.90 | > 10000 nM
O=C(C1Cc2ccccc2CN1S(=O)(=O)c1ccc(F)cc1)N1CCOCC1 (centres undefined) | < 5.87 | 6.19 | > 10000 nM
CCOc1ccc(CCNC(=O)c2cccs2)cc1OCC | 6.05 | 6.25 | > 100000 nM
COc1cccc(-c2ccc(O)c(CNC3CCN(Cc4ccccc4)CC3)c2)n1 | 6.42 | 6.79 | 5940 nM
COc1ccc(-c2c[n+](CC(=O)O[C@H]3C[C@H](C)CC[C@@H]3C(C)C)c3n2CCCCC3)cc1 | 6.35 | 6.39 | 16500 nM
Cn1nc(C(=O)NCc2ccc(F)cc2)c2c1CCC(N1CCC(CO)CC1)C2 (centres undefined) | < 5.90 | < 6.34 | > 10000 nM
CCC(C)NCC(O)(c1ccc(Cl)cc1)c1ccc(Cl)cc1 (centres undefined) | 6.19 | 6.73 | 46300 nM
CCOC(=O)C1=C(N)n2c(sc(=Cc3cccnc3)c2=O)=C(C(=O)OC)C1c1cccnc1 (centres undefined) | < 5.90 | < 6.04 | > 10000 nM
CCN(C(=O)Cn1c(=O)oc2ccccc21)c1ccc(F)cc1 | < 5.82 | 5.64 | > 10000 nM
CCN(CC)CCCC(C)Nc1cc(/C=C/c2ccc([N+](=O)[O-])cc2)nc2ccc(OC)cc12 (centres undefined) | 6.13 | 5.89 | > 6250 nM
CCOC(=O)c1ccc2nc(C)cc(Nc3ccc(N4CCCCC4)cc3)c2c1 | 6.54 | 6.20 | 21200 nM
CCOC(=O)C(Cc1ccc(O)cc1)NC1=CC(=O)C(=O)c2ccccc21 (centres undefined) | 6.52 | 6.48 | > 100000 nM
C=C[C@H]1CN2CC[C@H]1C[C@H]2[C@H](OC(=O)c1ccc(F)cc1)c1ccnc2ccccc12 | 6.11 | > 8.09 | > 10000 nM
O=C(Nc1ccc(Nc2cc([N+](=O)[O-])ccc2O)c2c1C(=O)c1ccccc1C2=O)c1ccccc1 | < 5.90 | < 6.05 | > 10000 nM
OCCC1CN(Cc2cccc(Cl)c2)CCN1Cc1ccccc1 (centres undefined) | < 4.90 | 5.76 | > 100000 nM
CC(=O)c1ccc(OCCSc2nc3c(N)ncnc3[nH]2)cc1 | < 4.95 | < 5.04 | > 100000 nM
CCN(CC)CCCC(C)NCc1ccc(OC)c(OCc2ccccc2)c1 (centres undefined) | < 6.10 | 6.58 | > 10000 nM
c1ccc(-c2ccccc2OCCNCCN2CCOCC2)cc1 | 5.00 | 5.57 | 46800 nM
Cn1c(SCC2CCCO2)nnc1C1CCN(C/C=C/c2ccccc2)CC1 (centres undefined) | < 5.89 | < 6.12 | > 3890 nM

Structure (SMILES) | pEC50 [1] | pEC50 [2] | CC50 [3]
Cc1cc(C)n(CC(O)Cn2c3ccc(I)cc3c3cc(I)ccc32)n1 (centres undefined) | 5.92 | 6.53 | > 100000 nM
Cc1ccnc(NC(c2ccncc2)c2ccc3cccnc3c2O)c1 (centres undefined) | 6.00 | 6.45 | > 100000 nM
COc1ccc(C2CC(c3c(-c4ccccc4)c4cc(Cl)ccc4[nH]c3=O)=NO2)cc1 (centres undefined) | 6.20 | < 6.44 | > 10000 nM
C=CCOC(=O)C1=C(C)N=C2SCCC(=O)N2C1c1ccc(OC(=O)c2ccco2)cc1 (centres undefined) | < 4.91 | < 4.92 | > 100000 nM
CC(=O)O[C@@H]1C(=O)[C@@]2(C)[C@H]([C@H](OC(=O)c3ccccc3)[C@@]3(O)C[C@H](OC(=O)[C@H](O)[C@@H](NC(=O)c4ccccc4)c4ccccc4)C(C)=C1C3(C)C)[C@]1(OC(C)=O)CO[C@@H]1C[C@@H]2O | 7.01 | 7.41 | 1210 nM
CN1CCN(c2cc(-c3ccncc3)nc(-c3cccnc3)n2)CC1 | 6.29 | 6.31 | > 10000 nM
O=C(N1CCCCC1)n1nnc2ccccc21 | 5.88 | 6.40 | > 100000 nM
Cc1ncc([N+](=O)[O-])n1CCOC(=O)NC(Nc1ccc(Br)cc1)C(Cl)(Cl)Cl (centres undefined) | 6.64 | 6.82 | > 100000 nM
Nc1ccc2nc(C=Cc3ccc(Cl)cc3)[nH]c2c1 | 6.24 | 6.92 | 6900 nM
CC(=O)N1CCC(N(C(=O)Nc2c(F)cccc2F)C(C)C)CC1 | < 4.90 | 6.20 | > 100000 nM
NC(=O)CSc1nnc2ccc(-c3ccc4c(c3)OCO4)nn12 | < 5.90 | < 5.96 | > 10000 nM
O=C(Cn1c(=O)oc2cc(S(=O)(=O)NCc3ccccc3)ccc21)NC1CCCCC1 | < 5.90 | < 6.02 | > 10000 nM
O=C(c1cccc(Cl)c1)N1CCN(c2ccc([N+](=O)[O-])c(NC3CC3)c2)CC1 | 6.26 | 6.47 | > 100000 nM
CCSC1=CC(=O)c2ccccc2C1=O | 6.26 | 6.64 | 5170 nM
Oc1ccc(-c2cncc(NCc3ccc4c(c3)OCO4)c2)cc1 | 5.93 | 6.02 | > 10000 nM
CC(C)CC(=O)N(C)CCCNc1ccnc2cc(Cl)ccc12 | 6.13 | 6.92 | 7440 nM
CCN(CC)Cc1cc(Nc2ccnc3cc(Cl)ccc23)ccc1O | 7.99 | 7.88 | > 100000 nM
COc1ccc(C(=O)C(CCC(CNC(C)(C)C)C(=O)c2ccc(OC)cc2)CNC(C)(C)C)cc1 (centres undefined) | 5.95 | 5.92 | > 10000 nM
NC(=O)C1CCN(S(=O)(=O)c2cc(Br)c(Br)s2)CC1 | < 6.12 | < 5.90 | > 10000 nM
CCOC(=O)c1c(NC(=O)c2cccnc2)sc(C)c1CC | < 5.96 | < 6.15 | > 10000 nM
Cc1cc(NC2CCCCC2)nc(NCc2ccccc2)n1 | 6.53 | 6.44 | 7870 nM
CCN(CC)Cc1cc2ccc(C)cc2n(CC(=O)OC)c1=O | < 5.90 | 7.57 | > 10000 nM
CCOC(=O)C1CCN(C(=O)C(=O)Nc2ccc3nc4n(c(=O)c3c2)CCCCC4)CC1 | 6.00 | 6.24 | > 100000 nM

Structure (SMILES) | pEC50 [1] | pEC50 [2] | CC50 [3]
Cn1c(=O)n(C)c2cc(C=NN=c3[nH]cc(-c4ccccc4)s3)ccc21 | < 5.97 | < 5.90 | > 10000 nM
N#Cc1ccc(NC(=O)CCCC(=O)O)cc1 | 5.68 | > 7.97 | > 10000 nM
Cc1ccc(NC(=O)C2CSC(c3cccc(F)c3)N2C(=O)c2ccc(C(C)(C)C)cc2)cc1C (centres undefined) | 6.22 | 8.10 | 848 nM
CCN1C=C(c2ccc(C)cc2)S/C1=C\c1sc2ccccc2[n+]1C | 6.44 | 6.03 | 18800 nM
Cn1c(=O)c2c(ncn2CC(O)CN2CCCC2)n(C)c1=O (centres undefined) | < 5.90 | < 5.92 | > 10000 nM
CCc1ccc(-n2nnc(C(=O)Nc3ccccc3Cl)c2C)cc1 | < 5.77 | 7.11 | > 10000 nM
COc1ccccc1C1CC(c2ccccc2)=NN1C(=O)c1ccccc1 (centres undefined) | 6.58 | 6.96 | 67000 nM
N#Cc1ccc(NC(=O)NC2CC3CCCC(C2)N3CCc2ccccc2)cc1 (centres undefined) | 6.44 | 6.37 | 48600 nM
Brc1ccc(C=Nc2ccc(-c3nc4cc(-c5ccc6[nH]c(-c7ccc(N=Cc8ccc(Br)cc8)cc7)nc6c5)ccc4[nH]3)cc2)cc1 | 6.23 | 6.19 | > 10000 nM
CN(C)c1ccc(C(=Cc2cc(-c3ccccc3)cc(-c3ccccc3)[o+]2)c2ccc(N(C)C)cc2)cc1 | 5.70 | 6.05 | 14400 nM
CCCOc1ccc(C=Nc2ccc(S(=O)(=O)Nc3ccccn3)cc2)cc1 | 5.85 | 6.09 | > 10000 nM
CN(C)c1cc[n+](CC(=O)c2ccc(Cl)cc2)cc1 | 6.77 | 6.88 | > 100000 nM
O=C(C1CC1)N1CCc2cc(Br)cc(S(=O)(=O)N3CCCCCC3)c21 | 5.84 | 6.08 | > 100000 nM
CC(Cc1ccccc1)NCCCCCCCNC(C)Cc1ccccc1 (centres undefined) | 6.57 | 6.98 | 5900 nM
CCc1ccccc1-n1c(C(C)N(C)C(=O)/C=C/c2ccc([N+](=O)[O-])cc2)nc2ccccc2c1=O (centres undefined) | 6.57 | 6.76 | 8350 nM
Cc1ccc(NC(=O)COc2ccc(Cl)cc2Cl)nc1 | < 5.25 | < 5.52 | > 100000 nM
CC(C)CC(NC(=O)OC(C)(C)C)C(=O)NC(Cc1ccccc1)C(=O)OCc1ccccc1 (stereo not drawn) (Boc-Leu-Phe-OBn; configuration not given here) | < 4.90 | 5.53 | > 100000 nM
CC1=C(C(=O)OC(C)C)C(c2ccc([N+](=O)[O-])cc2)C2=C(CC(C)(C)CC2=O)N1 (centres undefined) | 5.81 | 6.59 | 40000 nM
Cc1ccc(-c2nn3c(O)c4c(nc3c2C)CCCC4)cc1 | 6.59 | 6.42 | > 100000 nM
Cc1ccc(C)c(NC2=C(c3ccc(C(F)(F)F)cc3)C(=O)c3ccccc32)c1 | 5.73 | 5.37 | > 100000 nM
CCC1CN2CCc3cc(OC)c(OC)cc3C2CC1CC1NCCc2cc(OC)c(OC)cc21 (centres undefined) | 7.45 | 7.44 | 23700 nM
CCc1ccc2c(c1)c1nnc(SCC(=O)NCCOC)nc1n2C | < 5.90 | < 6.08 | > 10000 nM
